Results reported in PMC6979384, “Characterization of the plant homeodomain (PHD) reader family for their histone tail interactions” (Epigenetics & Chromatin, 2020).
“Also recorded” adds a separate entry of the source. Blank lines part the entries; values can stand above or below the substance they belong to.

Assays:
Experiment in all cases: Histone peptide microarray
Format in all cases: binding, human
KDM4C (TTP) = settings: GST-tagged KDM4C (TTP = Tandem Tudor domain + PHD); sheet Array Heatmap; each array performed twice, total n = 4
Procedure, shortened: (§1)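 Steps: express and purify GST-tagged PHD reader; incubate 0.5 μM protein on a peptide microarray (293 histone peptides, single or combined PTMs) following an optimized protocol; average signal across 4 replicates.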

RAG2 = settings: GST-tagged RAG2; sheet Array Heatmap; each array performed twice, total n = 4
Procedure, shortened: as §1

ING3 = settings: GST-tagged ING3; sheet Array Heatmap; each array performed twice, total n = 4
Procedure, shortened: as §1

DPF2 (PPC2W2) = settings: GST-tagged DPF2 (PPC2W2 = Dual PHD + C2W2-type Zn-finger); sheet Array Heatmap; each array performed twice, total n = 4
Procedure, shortened: as §1

PHF2 = settings: GST-tagged PHF2; sheet Array Heatmap; each array performed twice, total n = 4
Procedure, shortened: as §1

TAF3 = settings: GST-tagged TAF3; sheet Array Heatmap; each array performed twice, total n = 4
Procedure, shortened: as §1

ING5 = settings: GST-tagged ING5; sheet Array Heatmap; each array performed twice, total n = 4
Procedure, shortened: as §1

PHRF1 (RP) = settings: for Array Heatmap signal (histone peptide microarray): GST-tagged PHRF1 (RP), sheet Array Heatmap, each array performed twice, total n = 4
Procedure, shortened: as §1

PHF13 = settings: GST-tagged PHF13; sheet Array Heatmap; each array performed twice, total n = 4
Procedure, shortened: as §1

KDM5A (3) = settings: GST-tagged KDM5A (3); sheet Array Heatmap; each array performed twice, total n = 4
Procedure, shortened: as §1

BAZ2B = settings: GST-tagged BAZ2B; sheet Array Heatmap; each array performed twice, total n = 4
Procedure, shortened: as §1

KDM5B (1) = settings: GST-tagged KDM5B (1); sheet Array Heatmap; each array performed twice, total n = 4
Procedure, shortened: as §1

ING1 = settings: GST-tagged ING1; sheet Array Heatmap; each array performed twice, total n = 4
Procedure, shortened: as §1

PHF8 = settings: GST-tagged PHF8; sheet Array Heatmap; each array performed twice, total n = 4
Procedure, shortened: as §1

CHD5 (PPCC) = settings: GST-tagged CHD5 (PPCC = Dual PHD + Dual Chromodomain); sheet Array Heatmap; each array performed twice, total n = 4
Procedure, shortened: as §1

KDM5A (1) = settings: GST-tagged KDM5A (1); sheet Array Heatmap; each array performed twice, total n = 4
Procedure, shortened: as §1

ING4 = settings: GST-tagged ING4; sheet Array Heatmap; each array performed twice, total n = 4
Procedure, shortened: as §1

CHD5 (PCC) = settings: GST-tagged CHD5 (PCC = PHD + Dual Chromodomain); sheet Array Heatmap; each array performed twice, total n = 4
Procedure, shortened: as §1

SP140L = settings: GST-tagged SP140L; sheet Array Heatmap; each array performed twice, total n = 4
Procedure, shortened: as §1

TRIM66 (PB) = settings: GST-tagged TRIM66 (PB = PHD + Bromodomain); sheet Array Heatmap; each array performed twice, total n = 4
Procedure, shortened: as §1

DIDO1 = settings: GST-tagged DIDO1; sheet Array Heatmap; each array performed twice, total n = 4
Procedure, shortened: as §1

BPTF (PB) = settings: GST-tagged BPTF (PB = PHD + Bromodomain); sheet Array Heatmap; each array performed twice, total n = 4
Procedure, shortened: as §1

AIRE (PP) = settings: GST-tagged AIRE (PP); sheet Array Heatmap; each array performed twice, total n = 4
Procedure, shortened: as §1

PHF23 = settings: GST-tagged PHF23; sheet Array Heatmap; each array performed twice, total n = 4
Procedure, shortened: as §1

KDM5B (3) = settings: for Array Heatmap signal (histone peptide microarray): GST-tagged KDM5B (3), sheet Array Heatmap, each array performed twice, total n = 4
Procedure, shortened: as §1

CHD4 (PPCC) = settings: for Array Heatmap signal (histone peptide microarray): GST-tagged CHD4 (PPCC = Dual PHD + Dual Chromodomain), sheet Array Heatmap, each array performed twice, total n = 4
Procedure, shortened: as §1

relative binding (CHD4 (PPCC); peptide microarray, reader 0.5 μM, n = 4): no difference in binding
Substance: H3 (1-20): unmodified H3 N-terminal peptide (1–20)
Array Heatmap signal (histone peptide microarray) (KDM4C (TTP)): 0.431
Array Heatmap signal (histone peptide microarray) (RAG2): 0.2786
Array Heatmap signal (histone peptide microarray) (ING3): 0.4575
Array Heatmap signal (histone peptide microarray) (DPF2 (PPC2W2)): 0.6767
Array Heatmap signal (histone peptide microarray) (PHF2): 0.5688
Array Heatmap signal (histone peptide microarray) (TAF3): 0.2842
Array Heatmap signal (histone peptide microarray) (ING5): 0.3305
Array Heatmap signal (histone peptide microarray) (PHRF1 (RP)): 0.67
binding preference (PHRF1 (RP); peptide microarray, reader 0.5 μM, n = 4, listed as H3K4me0): strong preference for H3K4me0; also recorded: specifically bound H3K4me0 over K4me
Array Heatmap signal (histone peptide microarray) (PHF13): 0.5761
Array Heatmap signal (histone peptide microarray) (KDM5A (3)): 0.4935
Array Heatmap signal (histone peptide microarray) (BAZ2B): 0.438
Array Heatmap signal (histone peptide microarray) (KDM5B (1)): 0.6198
Array Heatmap signal (histone peptide microarray) (ING1): 0.542
Array Heatmap signal (histone peptide microarray) (PHF8): 0.3331
Array Heatmap signal (histone peptide microarray) (CHD5 (PPCC)): 0.5462
Array Heatmap signal (histone peptide microarray) (KDM5A (1)): 0.4331
Array Heatmap signal (histone peptide microarray) (ING4): 0.425
Array Heatmap signal (histone peptide microarray) (CHD5 (PCC)): 0.7444
Array Heatmap signal (histone peptide microarray) (SP140L): 0.461
Array Heatmap signal (histone peptide microarray) (TRIM66 (PB)): 0.7114
Array Heatmap signal (histone peptide microarray) (DIDO1): 0.7104
Array Heatmap signal (histone peptide microarray) (BPTF (PB)): 0.3262
Array Heatmap signal (histone peptide microarray) (AIRE (PP)): 0.4007
Array Heatmap signal (histone peptide microarray) (PHF23): 0.5836
Array Heatmap signal (histone peptide microarray) (KDM5B (3)): 0.5464
Array Heatmap signal (histone peptide microarray) (CHD4 (PPCC)): 0.5925

Substance: H3K4me1: H3 1-20 [Peptide H3K4me1]
Array Heatmap signal (histone peptide microarray) (KDM4C (TTP)): 0.5341
Array Heatmap signal (histone peptide microarray) (RAG2): 0.3065
Array Heatmap signal (histone peptide microarray) (ING3): 0.5265
Array Heatmap signal (histone peptide microarray) (DPF2 (PPC2W2)): 0.7192
Array Heatmap signal (histone peptide microarray) (PHF2): 0.5242
Array Heatmap signal (histone peptide microarray) (TAF3): 0.2998
Array Heatmap signal (histone peptide microarray) (ING5): 0.3865
Array Heatmap signal (histone peptide microarray) (PHRF1 (RP)): 0.6701
Array Heatmap signal (histone peptide microarray) (PHF13): 0.6545
Array Heatmap signal (histone peptide microarray) (KDM5A (3)): 0.6222
Array Heatmap signal (histone peptide microarray) (BAZ2B): 0.4995
Array Heatmap signal (histone peptide microarray) (KDM5B (1)): 0.6949
Array Heatmap signal (histone peptide microarray) (ING1): 0.551
Array Heatmap signal (histone peptide microarray) (PHF8): 0.3997
Array Heatmap signal (histone peptide microarray) (CHD5 (PPCC)): 0.5953
Array Heatmap signal (histone peptide microarray) (KDM5A (1)): 0.4924
Array Heatmap signal (histone peptide microarray) (ING4): 0.4885
Array Heatmap signal (histone peptide microarray) (CHD5 (PCC)): 0.8603
Array Heatmap signal (histone peptide microarray) (SP140L): 0.3684
Array Heatmap signal (histone peptide microarray) (TRIM66 (PB)): 0.6245
Array Heatmap signal (histone peptide microarray) (DIDO1): 0.6429
Array Heatmap signal (histone peptide microarray) (BPTF (PB)): 0.3638
Array Heatmap signal (histone peptide microarray) (AIRE (PP)): 0.5018
Array Heatmap signal (histone peptide microarray) (PHF23): 0.579
Array Heatmap signal (histone peptide microarray) (KDM5B (3)): 0.6104
Array Heatmap signal (histone peptide microarray) (CHD4 (PPCC)): 0.5818

Substance: H3K4me2: H3 1-20 [Peptide H3K4me2]
Array Heatmap signal (histone peptide microarray) (KDM4C (TTP)): 0.5984
Array Heatmap signal (histone peptide microarray) (RAG2): 0.3888
Array Heatmap signal (histone peptide microarray) (ING3): 0.5315
Array Heatmap signal (histone peptide microarray) (DPF2 (PPC2W2)): 0.7084
Array Heatmap signal (histone peptide microarray) (PHF2): 0.5474
Array Heatmap signal (histone peptide microarray) (TAF3): 0.3841
Array Heatmap signal (histone peptide microarray) (ING5): 0.3985
Array Heatmap signal (histone peptide microarray) (PHRF1 (RP)): 0.5228
Array Heatmap signal (histone peptide microarray) (PHF13): 0.6844
Array Heatmap signal (histone peptide microarray) (KDM5A (3)): 0.6851
Array Heatmap signal (histone peptide microarray) (BAZ2B): 0.5231
Array Heatmap signal (histone peptide microarray) (KDM5B (1)): 0.6566
Array Heatmap signal (histone peptide microarray) (ING1): 0.601
Array Heatmap signal (histone peptide microarray) (PHF8): 0.5074
Array Heatmap signal (histone peptide microarray) (CHD5 (PPCC)): 0.6021
Array Heatmap signal (histone peptide microarray) (KDM5A (1)): 0.5028
Array Heatmap signal (histone peptide microarray) (ING4): 0.5223
Array Heatmap signal (histone peptide microarray) (CHD5 (PCC)): 0.8359
Array Heatmap signal (histone peptide microarray) (SP140L): 0.3615
Array Heatmap signal (histone peptide microarray) (TRIM66 (PB)): 0.6781
Array Heatmap signal (histone peptide microarray) (DIDO1): 0.6829
Array Heatmap signal (histone peptide microarray) (BPTF (PB)): 0.3788
Array Heatmap signal (histone peptide microarray) (AIRE (PP)): 0.5318
Array Heatmap signal (histone peptide microarray) (PHF23): 0.6135
Array Heatmap signal (histone peptide microarray) (KDM5B (3)): 0.6323
Array Heatmap signal (histone peptide microarray) (CHD4 (PPCC)): 0.5852

Substance: H3K4me3: H3 1-20 [Peptide H3K4me3]
Array Heatmap signal (histone peptide microarray) (KDM4C (TTP)): 0.4579
Array Heatmap signal (histone peptide microarray) (RAG2): 0.3757
Array Heatmap signal (histone peptide microarray) (ING3): 0.4876
Array Heatmap signal (histone peptide microarray) (DPF2 (PPC2W2)): 0.5958
Array Heatmap signal (histone peptide microarray) (PHF2): 0.8051
Array Heatmap signal (histone peptide microarray) (TAF3): 0.3678
Array Heatmap signal (histone peptide microarray) (ING5): 0.3493
Array Heatmap signal (histone peptide microarray) (PHRF1 (RP)): 0.4656
Array Heatmap signal (histone peptide microarray) (PHF13): 0.5859
Array Heatmap signal (histone peptide microarray) (KDM5A (3)): 0.6781
Array Heatmap signal (histone peptide microarray) (BAZ2B): 0.4249
Array Heatmap signal (histone peptide microarray) (KDM5B (1)): 0.5666
Array Heatmap signal (histone peptide microarray) (ING1): 0.6386
Array Heatmap signal (histone peptide microarray) (PHF8): 0.4526
Array Heatmap signal (histone peptide microarray) (CHD5 (PPCC)): 0.5167
Array Heatmap signal (histone peptide microarray) (KDM5A (1)): 0.4187
Array Heatmap signal (histone peptide microarray) (ING4): 0.4513
Array Heatmap signal (histone peptide microarray) (CHD5 (PCC)): 0.6826
Array Heatmap signal (histone peptide microarray) (SP140L): 0.3018
Array Heatmap signal (histone peptide microarray) (TRIM66 (PB)): 0.622
Array Heatmap signal (histone peptide microarray) (DIDO1): 0.7775
Array Heatmap signal (histone peptide microarray) (BPTF (PB)): 0.3538
Array Heatmap signal (histone peptide microarray) (AIRE (PP)): 0.3854
Array Heatmap signal (histone peptide microarray) (PHF23): 0.678
Array Heatmap signal (histone peptide microarray) (KDM5B (3)): 0.4784
binding preference (KDM5B (3); peptide microarray, reader 0.5 μM, n = 4, comparison between K9ac + K18ac peptides): showed such a preference on peptide microarrays
Array Heatmap signal (histone peptide microarray) (CHD4 (PPCC)): 0.5281
